Here are results for twelve compounds from patent US10577365B2, “Derivatives of quinoline as inhibitors of DYRK1A and/or DYRK1B kinases” (Felicitex Therapeutics, Inc., priority 2016, dated 2020).

Structures can show the parent of a compound that is named as a salt.

One assay deals with T1, DYRK1A (Homo sapiens, UniProt Q13627).
T1 construct: purchased Carna Bioscence (Carna Biosciences) 04-130
Put plainly: DYRK1A in vitro kinase assay (ADP-Glo). The class given is biochemical. To be noted: ATP 70 μM (Km), substrate 3 μM, enzyme 2 nM or 0.7 nM, 30 min, rt. For orientation: ADP-Glo turns the ADP formed in a reaction into a luminescent signal.

For the next assay, the target named is T2, DYRK1B (Homo sapiens, UniProt Q9Y463).
T2 construct: purchased Carna Bioscence (Carna Biosciences) 04-131
T2 sequence (Q9Y463 whole entry): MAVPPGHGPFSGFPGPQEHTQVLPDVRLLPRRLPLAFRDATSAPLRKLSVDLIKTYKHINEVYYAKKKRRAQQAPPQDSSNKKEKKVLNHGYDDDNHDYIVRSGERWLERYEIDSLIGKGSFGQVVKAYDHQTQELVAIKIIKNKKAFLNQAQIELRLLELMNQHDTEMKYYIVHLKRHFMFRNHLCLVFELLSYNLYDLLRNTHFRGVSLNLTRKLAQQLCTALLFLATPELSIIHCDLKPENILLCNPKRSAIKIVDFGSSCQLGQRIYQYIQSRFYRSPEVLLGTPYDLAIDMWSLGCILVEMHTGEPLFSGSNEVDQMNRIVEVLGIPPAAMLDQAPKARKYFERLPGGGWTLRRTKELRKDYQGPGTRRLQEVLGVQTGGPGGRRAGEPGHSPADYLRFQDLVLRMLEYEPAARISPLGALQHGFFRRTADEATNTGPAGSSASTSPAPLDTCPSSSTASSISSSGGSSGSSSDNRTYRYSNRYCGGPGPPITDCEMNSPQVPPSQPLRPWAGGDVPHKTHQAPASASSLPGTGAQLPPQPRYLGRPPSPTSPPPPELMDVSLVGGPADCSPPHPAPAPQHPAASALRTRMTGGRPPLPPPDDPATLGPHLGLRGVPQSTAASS
Put plainly: DYRK1B in vitro kinase assay (ADP-Glo). Conditions: ADP-Glo assay, ATP 15 μM (Km), substrate 7 μM, enzyme 1 nM or 0.3 nM, 1 h, rt; read-out: DYRK1B IC50. The class given is biochemical.

On to `CNC(=O)c1cnc2[nH]cc(-c3ccc4nccc(-c5cccnc5)c4c3)c2c1` [Example 22, N-Methyl-3-[4-(pyridin-3-yl)quinolin-6-yl]-1H-pyrrolo[2,3-b]pyridine-5-carboxamide], for which the IC50 against DYRK1A and on DYRK1B was less than 10 nM each time.
Turning to `N[C@@H]1CCCN(c2ccnc3c(F)cc(-c4c[nH]c5ncc(CNCc6ccccc6)cc45)cc23)C1` [Example 51, (3R)-1-(6-{5-[(Benzylamino)methyl]-1H-pyrrolo[2,3-b]pyridin-3-yl}-8-fluoroquinolin-4-yl)piperidin-3-amine], the IC50 at DYRK1A and at DYRK1B was less than 10 nM throughout.
`CC(=O)Nc1cnc2ccc(-c3c[nH]c4ncc(C(=O)NCc5cccnc5)cc34)cc2c1` [Example 62, 3-(3-Acetamidoquinolin-6-yl)-N-(pyridin-3-ylmethyl)-1H-pyrrolo[2,3-b]pyridine-5-carboxamide]: the IC50 at DYRK1A and on DYRK1B was less than 10 nM each time.
Consider `Fc1cc(-c2c[nH]c3ncc(CNCc4ccccc4)cc23)cc2c(-c3cccnc3)ccnc12` [Example 50, Benzyl({3-[8-fluoro-4-(pyridin-3-yl)quinolin-6-yl]-1H-pyrrolo[2,3-b]pyridin-5-yl}methyl)amine], for which the 50% inhibitory concentration (IC50) against DYRK1A and at DYRK1B was less than 10 nM throughout.
For `C=CCN(C)C(=O)c1cnc2[nH]cc(-c3ccc4nccc(Cl)c4c3)c2c1` [Example 20, 3-(4-Chloroquinolin-6-yl)-N-methyl-N-(prop-2-en-1-yl)-1H-pyrrolo[2,3-b]pyridine-5-carboxamide], the concentration for half-maximal inhibition (IC50) (as a rule, the concentration at which inhibition is half-maximal) was 10 to 100 nM on DYRK1A and less than 10 nM on DYRK1B.
Taken in the same sequence, the figures for `N[C@@H]1CCCN(c2ccnc3c(F)cc(-c4c[nH]c5ncc(C(=O)NCc6cncnc6)cc45)cc23)C1` [Example 49, 3-{4-[(3R)-3-Aminopiperidin-1-yl]-8-fluoroquinolin-6-yl}-N-(pyrimidin-5-ylmethyl)-1H-pyrrolo[2,3-b]pyridine-5-carboxamide hydrochloride] were less than 10 nM and less than 10 nM.
As for `Nc1cnc2ccc(-c3c[nH]c4ncc(C(=O)NCc5cccnc5)cc34)cc2c1` [Example 61, 3-(3-Aminoquinolin-6-yl)-N-(pyridin-3-ylmethyl)-1H-pyrrolo[2,3-b]pyridine-5-carboxamide], the 50% inhibitory concentration (IC50) at DYRK1A and on DYRK1B was less than 10 nM throughout.
For the compound `CC(=O)Nc1cnc2[nH]cc(-c3cc(F)c4nccc(-c5cccnc5)c4c3)c2c1` [Example 46, N-{3-[8-Fluoro-4-(pyridin-3-yl)quinolin-6-yl]-1H-pyrrolo[2,3-b]pyridin-5-yl}acetamide], the IC50 on DYRK1A and on DYRK1B was less than 10 nM throughout.
For `c1cnc2ccc(-c3c[nH]c4ncccc34)cc2c1` [Example 2, 6-{1H-Pyrrolo[2,3-b]pyridin-3-yl}quinoline], the IC50 against DYRK1A and on DYRK1B was less than 10 nM throughout.
Regarding `c1cnc2[nH]cc(-c3ccc4ncc(NCc5ccoc5)cc4c3)c2c1` [Example 16, N-(Furan-3-ylmethyl)-6-{1H-pyrrolo[2,3-b]pyridin-3-yl}quinolin-3-amine], the IC50 at DYRK1A and at DYRK1B was less than 10 nM throughout.
Regarding `CNC(=O)c1cnc2[nH]cc(-c3cc(F)c4ncccc4c3)c2c1` [Example 30, 3-(8-Fluoroquinolin-6-yl)-N-methyl-1H-pyrrolo[2,3-b]pyridine-5-carboxamide], the half-maximal inhibitory concentration (IC50) at DYRK1A and at DYRK1B was less than 10 nM throughout.
With `CNC(=O)c1cnc2[nH]cc(-c3ccc4ncc(NCc5cccc(Cl)c5)c(N5CCC[C@H](N)C5)c4c3)c2c1` [Example 55, 3-{4-[(3S)-3-Aminopiperidin-1-yl]-3-{[(3-chlorophenyl)methyl]amino}quinolin-6-yl}-N-methyl-1H-pyrrolo[2,3-b]pyridine-5-carboxamide hydrochloride], the IC50 at DYRK1A is 10 to 100 nM; at DYRK1B it was less than 10 nM.
